# Experiments:
# Test in all cases: relative viability (nuclei count vs DMSO), 5 days (fraction); higher = more cells survive
# Ruboxistaurin = compound: CN(C)C[C@@H]1CCn2cc(c3ccccc32)C2=C(C(=O)NC2=O)c2cn(c3ccccc23)CCO1 [Ruboxistaurin]
# Method in brief: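 Following overnight incubation at 37 °C, lung cancer cell lines in 1536-well plates were pinned with five library-drug doses (not always all listed) in √10 steps on vehicle-anchored plates. The cells then spent 5 days without medium change before a combined fix, permeabilisation and Hoechst stain, 4× imaging and MetaXpress nuclear counts. Viability is the treated-to-vehicle ratio of nuclei, taken as the median across plates. Only plates with control CV below 25% and at least one doubling passed.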
# [1] = compound: CN(C)C[C@@H]1CCn2cc(c3ccccc32)C2=C(C(=O)NC2=O)c2cn(c3ccccc23)CCO1 [Ruboxistaurin] + N=C(N)NC(=N)NCCc1ccccc1 [Phenformin] (partner 250 µM)
# Method in brief: (§1)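 Relative viability equals treated-well nuclei counts divided by vehicle-well nuclei counts. Counts came from 4× images of lung cancer cell lines grown in 1536-well plates for 5 days after pin-tool dosing on the day after seeding. Dosing used one drug alone or a fixed anchor-drug dose plus five library-drug doses (not always all listed) in √10 steps, and values are medians of duplicate plates.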
# [2] = compound: CN(C)C[C@@H]1CCn2cc(c3ccccc32)C2=C(C(=O)NC2=O)c2cn(c3ccccc23)CCO1 [Ruboxistaurin] + COc1cc2c(Oc3ccc(NC(=O)C4(C(=O)Nc5ccc(F)cc5)CC4)cc3F)ccnc2cc1OCCCN1CCOCC1 [Foretinib] (partner 0.25 µM)
# Method in brief: as §1
# [3] = compound: CN(C)C[C@@H]1CCn2cc(c3ccccc32)C2=C(C(=O)NC2=O)c2cn(c3ccccc23)CCO1 [Ruboxistaurin] + Cc1nc(Nc2ncc(C(=O)Nc3c(C)cccc3Cl)s2)cc(N2CCN(CCO)CC2)n1 [Dasatinib] (partner 0.075 µM)
# Method in brief: as §1
# [4] = compound: CN(C)C[C@@H]1CCn2cc(c3ccccc32)C2=C(C(=O)NC2=O)c2cn(c3ccccc23)CCO1 [Ruboxistaurin] + CCNC(=O)c1noc(-c2cc(C(C)C)c(O)cc2O)c1-c1ccc(CN2CCOCC2)cc1 [Luminespib] (partner 0.01 µM)
# Method in brief: as §1
# [5] = compound: CN(C)C[C@@H]1CCn2cc(c3ccccc32)C2=C(C(=O)NC2=O)c2cn(c3ccccc23)CCO1 [Ruboxistaurin] + Cc1cc(Nc2cc(N3CCN(C)CC3)nc(Sc3ccc(NC(=O)C4CC4)cc3)n2)n[nH]1 [Tozasertib] (partner 0.1 µM)
# Method in brief: as §1
# Ruboxistaurin + OSI-027 = compound: CN(C)C[C@@H]1CCn2cc(c3ccccc32)C2=C(C(=O)NC2=O)c2cn(c3ccccc23)CCO1 [Ruboxistaurin] + COc1cccc2cc(-c3nc([C@H]4CC[C@H](C(=O)O)CC4)n4ncnc(N)c34)[nH]c12 [OSI-027] (partner 0.5 µM)
# Method in brief: as §1
# [6] = compound: CN(C)C[C@@H]1CCn2cc(c3ccccc32)C2=C(C(=O)NC2=O)c2cn(c3ccccc23)CCO1 [Ruboxistaurin] + CS(=O)(=O)N1CCN(Cc2cc3nc(-c4cccc5[nH]ncc45)nc(N4CCOCC4)c3s2)CC1 [Pictilisib] (partner 1 µM)
# Method in brief: as §1
# [7] = compound: CN(C)C[C@@H]1CCn2cc(c3ccccc32)C2=C(C(=O)NC2=O)c2cn(c3ccccc23)CCO1 [Ruboxistaurin] + CC1(C)CCC(c2ccc(Cl)cc2)=C(CN2CCN(c3ccc(C(=O)NS(=O)(=O)c4ccc(N[C@H](CCN5CCOCC5)CSc5ccccc5)c(S(=O)(=O)C(F)(F)F)c4)cc3)CC2)C1 [Navitoclax] (partner 0.5 µM)
# Method in brief: as §1
# Ruboxistaurin + Olaparib = compound: CN(C)C[C@@H]1CCn2cc(c3ccccc32)C2=C(C(=O)NC2=O)c2cn(c3ccccc23)CCO1 [Ruboxistaurin] + O=C(c1cc(Cc2n[nH]c(=O)c3ccccc23)ccc1F)N1CCN(C(=O)C2CC2)CC1 [Olaparib] (partner 8 µM)
# Method in brief: as §1
# [8] = compound: CN(C)C[C@@H]1CCn2cc(c3ccccc32)C2=C(C(=O)NC2=O)c2cn(c3ccccc23)CCO1 [Ruboxistaurin] + CS(=O)(=O)CCNCc1ccc(-c2ccc3ncnc(Nc4ccc(OCc5cccc(F)c5)c(Cl)c4)c3c2)o1 [Lapatinib] (partner 2 µM)
# Method in brief: as §1
# [9] = compound: CN(C)C[C@@H]1CCn2cc(c3ccccc32)C2=C(C(=O)NC2=O)c2cn(c3ccccc23)CCO1 [Ruboxistaurin] + C[C@@H](Oc1cc(-c2cnn(C3CCNCC3)c2)cnc1N)c1c(Cl)ccc(F)c1Cl [Crizotinib] (partner 1 µM)
# Method in brief: as §1
# [10] = compound: CN(C)C[C@@H]1CCn2cc(c3ccccc32)C2=C(C(=O)NC2=O)c2cn(c3ccccc23)CCO1 [Ruboxistaurin] + C[C@]1(O)C[C@@H](c2nc(-c3ccc4ccc(-c5ccccc5)nc4c3)c3c(N)nccn32)C1 [Linsitinib] (partner 1 µM)
# Method in brief: as §1
# [11] = compound: CN(C)C[C@@H]1CCn2cc(c3ccccc32)C2=C(C(=O)NC2=O)c2cn(c3ccccc23)CCO1 [Ruboxistaurin] + Nc1ncn([C@H]2C[C@H](O)[C@@H](CO)O2)c(=O)n1 [Decitabine] (partner 2 µM)
# Method in brief: as §1
# [12] = compound: CN(C)C[C@@H]1CCn2cc(c3ccccc32)C2=C(C(=O)NC2=O)c2cn(c3ccccc23)CCO1 [Ruboxistaurin] + Cc1nc(NC(=O)N2CCC[C@H]2C(N)=O)sc1-c1ccnc(C(C)(C)C(F)(F)F)c1 [Alpelisib] (partner 2 µM)
# Method in brief: as §1
# [13] = compound: CN(C)C[C@@H]1CCn2cc(c3ccccc32)C2=C(C(=O)NC2=O)c2cn(c3ccccc23)CCO1 [Ruboxistaurin] + CC(C)C[C@H](NC(=O)[C@H](Cc1ccccc1)NC(=O)c1cnccn1)B(O)O [Bortezomib] (partner 0.002 µM)
# Method in brief: as §1
cell line,measurement,setting,value
NCI-H1623,relative viability,Ruboxistaurin; 0.08 µM,1.03
same,relative viability,Ruboxistaurin; 0.8 µM,0.922
same,relative viability,Ruboxistaurin; 2.53 µM,1.01
same,relative viability,Ruboxistaurin; 8 µM,0.977
same,relative viability,[1]; first compound 0.08 µM,0.632
same,relative viability,[1]; first compound 0.8 µM,0.58
same,relative viability,[1]; first compound 2.53 µM,0.693
same,relative viability,[1]; first compound 8 µM,0.563
same,relative viability,[2]; first compound 0.08 µM,0.895
same,relative viability,[2]; first compound 0.8 µM,0.747
same,relative viability,[2]; first compound 2.53 µM,0.933
same,relative viability,[2]; first compound 8 µM,0.837
same,relative viability,[3]; first compound 0.08 µM,0.505
same,relative viability,[3]; first compound 0.8 µM,0.5
same,relative viability,[3]; first compound 2.53 µM,0.525
same,relative viability,[3]; first compound 8 µM,0.531
same,relative viability,[4]; first compound 0.08 µM,0.595
same,relative viability,[4]; first compound 0.8 µM,0.391
same,relative viability,[4]; first compound 2.53 µM,0.639
same,relative viability,[4]; first compound 8 µM,0.401
same,relative viability,[5]; first compound 0.08 µM,0.429
same,relative viability,[5]; first compound 0.8 µM,0.405
same,relative viability,[5]; first compound 2.53 µM,0.459
same,relative viability,[5]; first compound 8 µM,0.436
same,relative viability,Ruboxistaurin + OSI-027; first compound 0.08 µM,0.341
same,relative viability,Ruboxistaurin + OSI-027; first compound 0.8 µM,0.416
same,relative viability,Ruboxistaurin + OSI-027; first compound 2.53 µM,0.423
same,relative viability,Ruboxistaurin + OSI-027; first compound 8 µM,0.374
A549,relative viability,Ruboxistaurin; 0.08 µM,1.05
same,relative viability,Ruboxistaurin; 0.8 µM,0.9
same,relative viability,Ruboxistaurin; 2.53 µM,1
same,relative viability,Ruboxistaurin; 8 µM,0.83
same,relative viability,[6]; first compound 0.08 µM,0.567
same,relative viability,[6]; first compound 0.8 µM,0.423
same,relative viability,[6]; first compound 2.53 µM,0.385
same,relative viability,[6]; first compound 8 µM,0.223
same,relative viability,[7]; first compound 0.08 µM,1.23
same,relative viability,[7]; first compound 0.8 µM,1.18
same,relative viability,[7]; first compound 2.53 µM,1.16
same,relative viability,[7]; first compound 8 µM,0.99
same,relative viability,[1]; first compound 0.08 µM,0.199
same,relative viability,[1]; first compound 0.8 µM,0.162
same,relative viability,[1]; first compound 2.53 µM,0.221
same,relative viability,[1]; first compound 8 µM,0.175
same,relative viability,[2]; first compound 0.08 µM,1.04
same,relative viability,[2]; first compound 0.8 µM,0.935
same,relative viability,[2]; first compound 2.53 µM,1.06
same,relative viability,[2]; first compound 8 µM,0.962
same,relative viability,Ruboxistaurin + Olaparib; first compound 0.08 µM,0.27
same,relative viability,Ruboxistaurin + Olaparib; first compound 0.8 µM,0.273
same,relative viability,Ruboxistaurin + Olaparib; first compound 2.53 µM,0.415
same,relative viability,Ruboxistaurin + Olaparib; first compound 8 µM,0.381
same,relative viability,[8]; first compound 0.08 µM,1.03
same,relative viability,[8]; first compound 0.8 µM,0.838
same,relative viability,[8]; first compound 2.53 µM,0.866
same,relative viability,[8]; first compound 8 µM,0.753
same,relative viability,[9]; first compound 0.08 µM,0.751
same,relative viability,[9]; first compound 0.8 µM,0.631
same,relative viability,[9]; first compound 2.53 µM,0.862
same,relative viability,[9]; first compound 8 µM,0.679
same,relative viability,[10]; first compound 0.08 µM,0.685
same,relative viability,[10]; first compound 0.8 µM,0.562
same,relative viability,[10]; first compound 2.53 µM,0.61
same,relative viability,[10]; first compound 8 µM,0.458
same,relative viability,[11]; first compound 0.08 µM,0.264
same,relative viability,[11]; first compound 0.8 µM,0.217
same,relative viability,[11]; first compound 2.53 µM,0.307
same,relative viability,[11]; first compound 8 µM,0.305
same,relative viability,[12]; first compound 0.08 µM,0.75
same,relative viability,[12]; first compound 0.8 µM,0.562
same,relative viability,[12]; first compound 2.53 µM,0.944
same,relative viability,[12]; first compound 8 µM,0.501
NCI-H1299,relative viability,Ruboxistaurin; 0.08 µM,1.06
same,relative viability,Ruboxistaurin; 0.8 µM,1
same,relative viability,Ruboxistaurin; 2.53 µM,1.01
same,relative viability,Ruboxistaurin; 8 µM,1.09
same,relative viability,[13]; first compound 0.08 µM,1.05
same,relative viability,[13]; first compound 0.8 µM,1.02
same,relative viability,[13]; first compound 2.53 µM,1.05
same,relative viability,[13]; first compound 8 µM,1.08
same,relative viability,[6]; first compound 0.08 µM,0.841
same,relative viability,[6]; first compound 0.8 µM,0.51
same,relative viability,[6]; first compound 2.53 µM,0.731
same,relative viability,[6]; first compound 8 µM,0.45
same,relative viability,[7]; first compound 0.08 µM,1.08
same,relative viability,[7]; first compound 0.8 µM,1.01
same,relative viability,[7]; first compound 2.53 µM,1.07
same,relative viability,[7]; first compound 8 µM,1.06
same,relative viability,[2]; first compound 0.08 µM,1.11
same,relative viability,[2]; first compound 0.8 µM,1.11
same,relative viability,[2]; first compound 2.53 µM,1.16
same,relative viability,[2]; first compound 8 µM,1.21
same,relative viability,Ruboxistaurin + Olaparib; first compound 0.08 µM,0.95
same,relative viability,Ruboxistaurin + Olaparib; first compound 0.8 µM,1.02
same,relative viability,Ruboxistaurin + Olaparib; first compound 2.53 µM,0.976
same,relative viability,Ruboxistaurin + Olaparib; first compound 8 µM,1.08
same,relative viability,[8]; first compound 0.08 µM,0.997
same,relative viability,[8]; first compound 0.8 µM,0.931
same,relative viability,[8]; first compound 2.53 µM,0.993
same,relative viability,[8]; first compound 8 µM,0.962
same,relative viability,[9]; first compound 0.08 µM,0.921
same,relative viability,[9]; first compound 0.8 µM,0.978
same,relative viability,[9]; first compound 2.53 µM,0.99
same,relative viability,[9]; first compound 8 µM,1.02
same,relative viability,[10]; first compound 0.08 µM,1.03
same,relative viability,[10]; first compound 0.8 µM,0.921
same,relative viability,[10]; first compound 2.53 µM,0.951
same,relative viability,[10]; first compound 8 µM,1.15
same,relative viability,[12]; first compound 0.08 µM,1.08
same,relative viability,[12]; first compound 0.8 µM,1.07
same,relative viability,[12]; first compound 2.53 µM,1.07
same,relative viability,[12]; first compound 8 µM,1.16

# Reference: the supplement of paper PMC10307832
